Laboratory results: PMC7827406, “Structure–Activity Relationship (SAR) Study of Spautin-1 to Entail the Discovery of Novel NEK4 Inhibitors” (International Journal of Molecular Sciences, 2021)
Read-outs that look alike come from different tables or passages of the source.

Experiments:
Assay in all cases: biochemical
Set-up in all cases: Eurofins KinaseProfiler full panel at Km ATP, residual kinase activity (%) relative to DMSO
Abl(h) = molecular target: T1, Abl(h) (Homo sapiens, UniProt P00519)
T1 construct: gene ABL1
How it was run: (§1)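 Two 10 µM single-concentration screens were run: a competition-binding screen, in which DNA-tagged kinase bound to immobilized ligands was quantified by qPCR, and a radiometric activity panel at Km ATP. Each is expressed as residual kinase activity (%).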

CDK17/cyclinY(h) = CDK17/cyclinY(h) (Homo sapiens, UniProt Q00537)
How it was run: as §1

DYRK3(h) = molecular target: T2, DYRK3(h) (Homo sapiens, UniProt O43781)
T2 sequence (O43781 1-588): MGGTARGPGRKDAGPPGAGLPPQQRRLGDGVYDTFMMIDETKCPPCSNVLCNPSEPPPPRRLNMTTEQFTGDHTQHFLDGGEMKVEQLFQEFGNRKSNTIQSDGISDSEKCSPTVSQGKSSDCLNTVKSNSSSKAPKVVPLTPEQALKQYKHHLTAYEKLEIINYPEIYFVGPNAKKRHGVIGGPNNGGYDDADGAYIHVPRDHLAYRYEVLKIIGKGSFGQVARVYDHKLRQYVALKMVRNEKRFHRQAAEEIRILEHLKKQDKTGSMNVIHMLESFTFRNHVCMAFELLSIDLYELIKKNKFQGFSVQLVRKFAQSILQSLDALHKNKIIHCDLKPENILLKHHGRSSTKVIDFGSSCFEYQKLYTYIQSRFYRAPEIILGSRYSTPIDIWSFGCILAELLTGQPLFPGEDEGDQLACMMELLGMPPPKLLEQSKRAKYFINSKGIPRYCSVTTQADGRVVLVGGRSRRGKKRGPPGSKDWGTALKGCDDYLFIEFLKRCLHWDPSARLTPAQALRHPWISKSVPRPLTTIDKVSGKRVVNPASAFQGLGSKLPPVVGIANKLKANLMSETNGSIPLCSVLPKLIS
How it was run: as §1

IRR(h) = molecular target: T3, IRR(h) (Homo sapiens, UniProt P14616)
T3 construct: gene INSRR
How it was run: as §1

SNRK(h) = molecular target: T4, SNRK(h) (Homo sapiens, UniProt Q9NRH2)
T4 sequence (Q9NRH2 1-765): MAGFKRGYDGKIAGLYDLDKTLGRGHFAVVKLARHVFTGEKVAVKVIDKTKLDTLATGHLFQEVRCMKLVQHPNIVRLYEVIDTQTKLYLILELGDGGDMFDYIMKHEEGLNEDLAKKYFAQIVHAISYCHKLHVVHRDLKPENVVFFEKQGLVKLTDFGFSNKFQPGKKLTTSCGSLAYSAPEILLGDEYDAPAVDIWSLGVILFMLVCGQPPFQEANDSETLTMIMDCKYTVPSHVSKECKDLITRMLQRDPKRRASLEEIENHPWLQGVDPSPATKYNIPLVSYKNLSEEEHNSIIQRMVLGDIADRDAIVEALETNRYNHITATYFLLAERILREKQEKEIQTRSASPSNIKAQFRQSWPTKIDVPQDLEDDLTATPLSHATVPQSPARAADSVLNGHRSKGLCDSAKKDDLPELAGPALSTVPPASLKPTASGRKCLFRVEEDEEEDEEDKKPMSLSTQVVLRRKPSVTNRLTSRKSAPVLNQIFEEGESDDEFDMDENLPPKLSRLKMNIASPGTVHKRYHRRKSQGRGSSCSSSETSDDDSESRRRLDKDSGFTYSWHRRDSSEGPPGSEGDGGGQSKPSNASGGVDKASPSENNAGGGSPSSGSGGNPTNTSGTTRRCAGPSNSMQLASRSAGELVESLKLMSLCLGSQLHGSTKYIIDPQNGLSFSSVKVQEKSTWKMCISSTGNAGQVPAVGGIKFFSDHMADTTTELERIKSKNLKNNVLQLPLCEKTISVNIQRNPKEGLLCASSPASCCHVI
How it was run: as §1

Tie2(R849W)(h) = molecular target: T5, Tie2(R849W)(h) (Homo sapiens, UniProt Q02763, R849W)
T5 construct: gene TEK
How it was run: as §1

[1] = read-out: Residual activity (%) 5at
[2] = read-out: Residual activity (%) 5as
[3] = read-out: Residual activity (%) 5ay
[4] = read-out: Residual activity (%) Spautin-1 5aa

T1 sequence (P00519 whole entry): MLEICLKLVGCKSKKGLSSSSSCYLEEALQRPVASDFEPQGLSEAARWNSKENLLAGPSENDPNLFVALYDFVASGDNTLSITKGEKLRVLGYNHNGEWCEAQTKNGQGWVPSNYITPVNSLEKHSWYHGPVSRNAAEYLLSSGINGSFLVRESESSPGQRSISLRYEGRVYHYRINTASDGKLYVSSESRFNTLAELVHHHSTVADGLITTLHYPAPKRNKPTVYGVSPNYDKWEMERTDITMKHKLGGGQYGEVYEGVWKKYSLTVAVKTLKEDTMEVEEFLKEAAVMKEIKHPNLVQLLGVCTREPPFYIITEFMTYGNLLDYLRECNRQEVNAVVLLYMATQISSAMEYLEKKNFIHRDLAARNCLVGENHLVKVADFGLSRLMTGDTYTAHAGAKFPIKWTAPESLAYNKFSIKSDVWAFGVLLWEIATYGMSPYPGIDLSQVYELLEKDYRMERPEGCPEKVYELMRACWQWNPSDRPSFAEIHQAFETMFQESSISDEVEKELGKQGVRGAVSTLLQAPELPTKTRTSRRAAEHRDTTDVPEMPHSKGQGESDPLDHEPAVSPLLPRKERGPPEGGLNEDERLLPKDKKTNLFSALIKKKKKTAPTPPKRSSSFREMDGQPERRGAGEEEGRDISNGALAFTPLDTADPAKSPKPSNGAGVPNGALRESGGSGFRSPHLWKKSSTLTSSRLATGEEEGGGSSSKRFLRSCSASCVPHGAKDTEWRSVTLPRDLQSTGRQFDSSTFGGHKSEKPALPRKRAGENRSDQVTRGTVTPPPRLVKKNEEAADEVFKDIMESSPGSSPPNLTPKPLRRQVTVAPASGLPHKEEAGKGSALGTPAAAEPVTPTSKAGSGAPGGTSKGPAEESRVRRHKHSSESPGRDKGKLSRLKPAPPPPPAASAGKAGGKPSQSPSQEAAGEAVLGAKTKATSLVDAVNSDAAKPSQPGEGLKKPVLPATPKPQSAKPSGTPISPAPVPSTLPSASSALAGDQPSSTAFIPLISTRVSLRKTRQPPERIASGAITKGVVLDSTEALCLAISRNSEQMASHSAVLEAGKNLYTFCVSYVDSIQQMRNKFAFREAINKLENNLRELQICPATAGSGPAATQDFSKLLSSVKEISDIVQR
Sequence of CDK17/cyclinY(h) (Q00537 whole entry): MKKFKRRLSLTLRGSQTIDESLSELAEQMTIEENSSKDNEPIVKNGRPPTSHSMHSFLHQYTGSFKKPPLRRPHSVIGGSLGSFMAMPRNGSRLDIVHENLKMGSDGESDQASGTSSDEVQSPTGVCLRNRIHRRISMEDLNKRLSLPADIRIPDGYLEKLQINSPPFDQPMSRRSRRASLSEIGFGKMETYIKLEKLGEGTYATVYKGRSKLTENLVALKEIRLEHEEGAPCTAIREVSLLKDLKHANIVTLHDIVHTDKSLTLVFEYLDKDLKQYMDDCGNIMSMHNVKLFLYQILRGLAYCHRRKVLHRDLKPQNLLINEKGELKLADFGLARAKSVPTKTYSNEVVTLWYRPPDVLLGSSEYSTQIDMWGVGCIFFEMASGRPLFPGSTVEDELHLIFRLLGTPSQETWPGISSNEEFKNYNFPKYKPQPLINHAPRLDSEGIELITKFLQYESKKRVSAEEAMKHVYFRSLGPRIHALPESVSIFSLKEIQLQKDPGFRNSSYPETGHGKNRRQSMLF
Sequence of CDK17/cyclinY(h) (Q8ND76 whole entry partner): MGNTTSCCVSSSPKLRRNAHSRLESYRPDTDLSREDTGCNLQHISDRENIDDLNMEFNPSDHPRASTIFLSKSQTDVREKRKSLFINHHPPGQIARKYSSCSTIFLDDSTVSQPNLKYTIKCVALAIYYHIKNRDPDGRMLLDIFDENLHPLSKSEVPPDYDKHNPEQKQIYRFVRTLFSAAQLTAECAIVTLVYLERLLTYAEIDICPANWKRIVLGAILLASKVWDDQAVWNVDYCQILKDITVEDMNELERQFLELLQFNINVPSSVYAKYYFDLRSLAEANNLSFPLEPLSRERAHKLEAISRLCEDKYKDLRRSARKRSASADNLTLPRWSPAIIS
T3 sequence (P14616 whole entry): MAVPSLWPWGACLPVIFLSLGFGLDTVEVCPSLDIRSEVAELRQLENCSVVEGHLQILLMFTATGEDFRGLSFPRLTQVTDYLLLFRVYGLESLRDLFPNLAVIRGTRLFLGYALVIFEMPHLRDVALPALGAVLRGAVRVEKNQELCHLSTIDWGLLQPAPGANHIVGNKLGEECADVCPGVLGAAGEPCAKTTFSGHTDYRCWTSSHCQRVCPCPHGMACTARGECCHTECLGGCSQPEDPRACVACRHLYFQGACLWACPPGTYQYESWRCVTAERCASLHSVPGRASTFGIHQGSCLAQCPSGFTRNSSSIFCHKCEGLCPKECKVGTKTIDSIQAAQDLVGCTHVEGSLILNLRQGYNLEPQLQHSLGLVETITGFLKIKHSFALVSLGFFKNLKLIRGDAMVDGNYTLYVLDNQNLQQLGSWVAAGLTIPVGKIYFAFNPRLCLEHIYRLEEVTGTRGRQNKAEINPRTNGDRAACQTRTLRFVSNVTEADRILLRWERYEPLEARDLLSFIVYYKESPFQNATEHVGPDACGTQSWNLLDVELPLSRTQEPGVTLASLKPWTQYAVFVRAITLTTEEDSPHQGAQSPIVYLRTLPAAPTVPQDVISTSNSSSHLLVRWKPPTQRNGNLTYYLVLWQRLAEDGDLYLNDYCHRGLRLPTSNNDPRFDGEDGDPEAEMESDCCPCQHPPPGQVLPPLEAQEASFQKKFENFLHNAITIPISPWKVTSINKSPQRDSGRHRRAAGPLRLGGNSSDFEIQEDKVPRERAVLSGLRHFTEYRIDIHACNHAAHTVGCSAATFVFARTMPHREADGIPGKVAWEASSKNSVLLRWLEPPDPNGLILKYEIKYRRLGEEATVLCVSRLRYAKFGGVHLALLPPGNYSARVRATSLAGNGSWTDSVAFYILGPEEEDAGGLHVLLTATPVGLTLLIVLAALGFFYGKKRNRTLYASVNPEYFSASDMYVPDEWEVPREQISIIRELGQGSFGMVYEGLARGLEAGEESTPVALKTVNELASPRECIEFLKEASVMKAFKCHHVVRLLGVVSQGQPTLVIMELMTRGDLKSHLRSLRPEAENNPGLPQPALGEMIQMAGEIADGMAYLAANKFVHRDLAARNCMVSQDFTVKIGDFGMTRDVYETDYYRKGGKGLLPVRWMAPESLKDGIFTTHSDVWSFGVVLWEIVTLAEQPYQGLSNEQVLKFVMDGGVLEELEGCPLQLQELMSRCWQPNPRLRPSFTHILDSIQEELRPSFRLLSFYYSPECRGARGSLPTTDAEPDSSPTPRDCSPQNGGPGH
T5 sequence (Q02763 whole entry R849W): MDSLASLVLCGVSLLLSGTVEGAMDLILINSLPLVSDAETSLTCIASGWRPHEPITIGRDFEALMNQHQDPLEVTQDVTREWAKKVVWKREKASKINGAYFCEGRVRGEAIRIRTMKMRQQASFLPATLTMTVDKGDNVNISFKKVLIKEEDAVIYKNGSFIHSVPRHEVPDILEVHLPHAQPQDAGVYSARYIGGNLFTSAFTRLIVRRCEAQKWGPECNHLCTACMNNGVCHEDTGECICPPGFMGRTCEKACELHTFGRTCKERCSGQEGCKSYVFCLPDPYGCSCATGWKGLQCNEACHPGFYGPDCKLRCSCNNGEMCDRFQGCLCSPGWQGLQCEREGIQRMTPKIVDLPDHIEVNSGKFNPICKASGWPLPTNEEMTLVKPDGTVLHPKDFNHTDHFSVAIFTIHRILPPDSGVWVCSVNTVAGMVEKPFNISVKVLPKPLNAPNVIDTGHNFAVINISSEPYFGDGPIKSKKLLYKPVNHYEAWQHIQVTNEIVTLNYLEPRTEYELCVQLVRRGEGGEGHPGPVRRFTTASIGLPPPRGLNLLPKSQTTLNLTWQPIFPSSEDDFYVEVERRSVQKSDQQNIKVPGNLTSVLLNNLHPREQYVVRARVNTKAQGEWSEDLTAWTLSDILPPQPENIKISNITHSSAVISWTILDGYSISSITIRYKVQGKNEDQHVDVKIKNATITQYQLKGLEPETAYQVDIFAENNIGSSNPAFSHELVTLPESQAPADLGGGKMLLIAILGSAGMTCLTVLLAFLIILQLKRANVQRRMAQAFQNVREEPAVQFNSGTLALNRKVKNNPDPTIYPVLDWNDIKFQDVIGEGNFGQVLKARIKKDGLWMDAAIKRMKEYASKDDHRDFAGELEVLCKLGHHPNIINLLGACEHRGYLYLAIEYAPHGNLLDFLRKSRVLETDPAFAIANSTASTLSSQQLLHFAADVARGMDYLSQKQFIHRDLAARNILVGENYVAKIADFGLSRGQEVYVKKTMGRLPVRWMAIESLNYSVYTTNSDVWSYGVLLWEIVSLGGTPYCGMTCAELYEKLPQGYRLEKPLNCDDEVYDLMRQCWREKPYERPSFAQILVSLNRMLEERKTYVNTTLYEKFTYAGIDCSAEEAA

## Fc1ccc2ncnc(NCCc3ccc(Cl)cc3)c2c1 [5at, N-[2-(4-Chlorophenyl)Ethyl]-6-Fluoro-4-Quinazolinamine]
Abl(h); [1]
  remaining activity at 10 µM: 96%
CDK17/cyclinY(h); [1]
  remaining activity at 10 µM: 88%
DYRK3(h); [1]
  remaining activity at 10 µM: 98%
IRR(h); [1]
  remaining activity at 10 µM: 79%
SNRK(h); [1]
  remaining activity at 10 µM: 103%
Tie2(R849W)(h); [1]
  remaining activity at 10 µM: 90%

## Fc1ccc(CCNc2ncnc3ccc(F)cc23)cc1 [5as, 6-Fluoro-N-[2-(4-Fluorophenyl)Ethyl]-4-Quinazolinamine]
Abl(h); [2]
  remaining activity at 10 µM: 91%
CDK17/cyclinY(h); [2]
  remaining activity at 10 µM: 80%
DYRK3(h); [2]
  remaining activity at 10 µM: 98%
IRR(h); [2]
  remaining activity at 10 µM: 87%
SNRK(h); [2]
  remaining activity at 10 µM: 104%
Tie2(R849W)(h); [2]
  remaining activity at 10 µM: 98%

## COc1ccc2ncnc(Nc3cccc(F)c3)c2c1 [5ay, N-(3-Fluorophenyl)-6-Methoxy-4-Quinazolinamine]
Abl(h); [3]
  remaining activity at 10 µM: 74%
CDK17/cyclinY(h); [3]
  remaining activity at 10 µM: 74%
DYRK3(h); [3]
  remaining activity at 10 µM: 57%
IRR(h); [3]
  remaining activity at 10 µM: 99%
SNRK(h); [3]
  remaining activity at 10 µM: 79%
Tie2(R849W)(h); [3]
  remaining activity at 10 µM: 110%

## Fc1ccc(CNc2ncnc3ccc(F)cc23)cc1 [5aa, 6-Fluoro-N-(4-fluorobenzyl)-4-Quinazolinamine]
Abl(h); [4]
  remaining activity at 10 µM: 83%
CDK17/cyclinY(h); [4]
  remaining activity at 10 µM: 82%
DYRK3(h); [4]
  remaining activity at 10 µM: 117%
IRR(h); [4]
  remaining activity at 10 µM: 93%
SNRK(h); [4]
  remaining activity at 10 µM: 103%
Tie2(R849W)(h); [4]
  remaining activity at 10 µM: 91%
